Legend:
Assay type in all cases: physicochemical
[1] = Bulk density and tapped density of crystalline particles (flowability: Carr index, Hausner ratio)
Procedure: The tapped density and bulk density were analyzed to analyze flowability and cohesiveness. tapped density means the changed volume when the container is tapped after packing the powder, which means that the voids between particles are reduced. In addition, the porosity can be confirmed by checking the changes in bulk density (apparent density) and tapped density. In general, the flowability and cohesiveness of the granular powder were evaluated using Carr index (CI) (Carr, 1965) and Hausner ratio (HR) (Hausner, 1967).
The bulk density and tapped density of crystalline particles prepared according to Preparation Examples, Examples and Comparative Examples were measured. The bulk density is the volume when about 50 g of granular powder is put into the measuring cylinder, and the tapped density is the volume when there is no further change in volume after lightly tapping the measuring cylinder on the floor at a constant height 100 times. The bulk density refers to the volume occupied by a certain mass of powder, which refers to the sum of the volume of the powder and the volume of voids between particles as the total volume.
The flowability and cohesiveness of the granular powder were calculated by the Carr index of Equation (3) and the Hausner ratio of Equation (4) using the bulk density and tapped density measured above according to the method of Jinapong et al (2008). […]

[2] = Particle size distribution of crystalline particles, wet method, laser diffraction particle size analyzer
Procedure: The volume average particle distribution and particle size distribution of the crystalline particles prepared in Preparation Examples, Examples and Comparative Examples were measured by a wet method using a laser diffraction particle size analyzer.
It can be said that the particle size distribution is better as the values of DV10/DV50 and DV50/DV90 used as indicators are larger. Here, DV10, DV50, and DV90 mean particle diameters of particles corresponding to 10%, 50%, and 90% of the total number of particles, respectively, when the measured particles are arranged in order from smallest to largest in particle size.

[3] = Solubility in organic solvents and water

Row | Compound | Flowability and cohesiveness (in words) [1] | Particle size distribution (in words) [2] | Solubility [3]
1 | CC(C)n1cc(C#N)c2cc(-n3cc(C(=O)O)cn3)ccc21 [Synthesis Example 1-4, 1-(3-cyano-1-isopropyl-indol-5-yl)pyrazole-4-carboxylic acid] | very good | very good | –
2 | CC(C)n1cc(C#N)c2cc(-n3cc(C(=O)O)cn3)ccc21 [compound of Formula 1, 1-(3-cyano-1-isopropyl-indol-5-yl)pyrazole-4-carboxylic acid] | – | – | very low
